Data: EP0120757A1, “Compositions in the form of microglobules consisting of partially quaternised, tertiary polyamines, and containing hydrophobic compounds, their preparation and application” (Etablissement Public dit: CENTRE NATIONAL DE LA RECHERCHE …, priority 1983, dated 1984)
Values after ≈ are worked out from the molar mass of the structure shown. One block for each compound: values may come before it.

Tests used:
[1] = Solubilisation of griseofulvine in aqueous Q-P(TDAE)19 microglobule solution, assayed by circular dichroism at 294 nm after filtration; assay type: physicochemical; conditions: Example 5, Q-P(TDAE)19 TN = 2,5 x 10^-2 N, per ml of filtrate
Protocol: Les essais sont effectués à partir d'une solution basique de Q-P(TDAE)19 (TN= 2,5 x 10^-2 N). Des échantillons contenant 5ml de cette solution basique sont ajustés aux pH correspondant aux différents β par addition de HC1 0,5N).
7mg de griseofulvine en poudre sont ajoutés à chaque échantillon. On laisse soniquer pendant 5 minutes et on filtre les mélanges sur filtre millipore (0,45 micromètre). Les filtrats limpides sont conservés de la même façon que pour les exemples 1 et 2. Le dosage de la griseofulvine solubilisée est effectué dans le milieu solvant eau-acétonitrile : 20/80, V/V. On prélève dans chaque essai, 1ml de filtrat qui est dilué à 5ml par de l'acétonitrile. Les ellipticités des différentes solutions sont mesurées à λ = 294nm et comparées à des solutions standard de griseofulvine dissoutes dans le même milieu solvant.
Le tableau suivant donne les quantités de griseofulvine dissoute (en microgrammes par ml de filtrat) en fonction du pH et du degré de protonation β . La solubilité de la griseofulvine dans l'eau est de l'ordre de 13 à 15 microgrammes par ml.

[2] = Solubility of the hydrophobic drug in water without polymer
[3] = Solubilisation of progestérone in aqueous Q-P(TDAE)19 microglobule solution, assayed by circular dichroism at 285 nm after filtration; assay type: physicochemical; conditions: for progestérone (microgrammes/ml): per ml of filtrate; for quantité de progestérone dissoute: Example 3, Q-P(TDAE)19 TN = 0,125 N, pH = 7,7, β = 0,06
Protocol: A) Les essais sont effectués à partir d'une solution basique de poly(diéthylaminométhyl thiiranne) quaternisée à 19% Q-P(TDAE)19 de formule [drawing 4] X étant un anion (par exemple un anion halogénure tel que chlorure ou bromure), à une concentration TN = (2,5+ 0,1)x 10^-2 N (polymère = 3,77mg de polymère sous forme basique par ml de solution).
Cette solution est obtenue de la façon suivante: • 270mg de chlorhydrate de Q-P(TDAE)19 sont dissous dans 10ml d'eau distillée, puis passés sur une résine échangeuse d'anions (BIO-RAD AG 1-x4-20-50 mesh-) sous forme OH et récupérés dans une fiole jaugée de 50ml.
Des échantillons contenant 5m1 de cette solution basique sont ajustés, par addition de HC1 0,5N, aux pH correspondant à différentes valeurs du degré de protonation apparent de la fonction amine tertiaire résiduelle dans le domaine 0 < β< 1. On ajoute 5mg de progestérone en poudre à chaque échantillon et les mélanges sont soit soniqués pendant 5 minutes soit agités pendant 48 heures.
Après dissolution, chaque échantillon est filtré sur filtre millipore (0,45 micromètres). Les filtrats sont clairs et limpides. Le système "véhicule-drogue" peut être conservé de deux façons différentes: • - en solution, pendant quelques mois au réfrigérateur • - sous forme solide, en lyophilisant les filtrats et en les conservant sous vide. Le filtrat lyophilisé se solubilise rapidement en solution aqueuse.
Le dosage de la progestérone solubilisée ne peut être fait que par extraction de cette dernière des microémulsions. Cette extraction est obtenue par éclatement des véhicules globulaires dans un mélange filtrat-éthanol absolu dans le rapport V/V : 20/80. 1ml de chaque filtrat est dilué à 5ml par addition d'éthanol. Les différents filtrats présentent dans la région 350-250nm des bandes dichrolques caractéristiques de la progestérone. Le signal de dichroisme circulaire à λ = 285nm est utilisable pour évaluer la quantité de progestérone présente dans chaque filtrat par comparaison avec les ellipticités de solutions standard de progestérone dissoute dans le même milieu solvant.
Le tableau suivant donne les quantités de progestérone solubilisée (en microgramme par ml de filtrat) en fonction du pH et du degré de protonation β pour chaque essai.
On opère comme à l'exemple 1 mais les essais sont effectués à partir d'une concentration TN = 0,15N de Q-P(TDAE)19 sous forme basique. Des échantillons contenant 2ml de cette solution sont ajustés à différents β par addition de HC1 N et additionnés de 5mg de progestérone. Après sonication pendant 5 minutes, les mélanges sont filtrés sur filtre millipore (0,45 micromètre). Le dosage de la progestérone solubilisée est fait comme précédemment. 0,2ml de chaque filtrat sont dilués à 2ml par de l'éthanol absolu. Les ellipticités sont mesurées â λ = 285nm et comparées aux solutions standard de progestérone effectuées dans les mêmes conditions.
Le tableau suivant donne les quantités de progestérone solubilisée (en microgrammes par ml de filtrat) en fonction du pH et du degré de protonation S.
Deux essais sont réalisés dans les mêmes conditions: concentration en polymère, β et pH identiques mais on ajoute au deuxième essai, du chlorure de sodium de telle façon que la solution soit à 0,9X en NaCl.
Deux échantillons contenant 2m1 de solution basique de Q-P(TDAE)19 (TN = 0,125 N) sont ajustés à pH = 7,7 et à β= 0,06 par addition de 0,06ml de HCl N. Dans le deuxième échantillon, on ajoute 18mg de NaCl. 5mg de progestérone sont additionnés à chaque échantillon. Les mélanges sont soniqués pendant 5 minutes. Le protocole de filtration et de dosage de la progestérone solubilisée est le même qu'à l'exemple 2.

- griseofulvine (microgrammes/ml) ([1]; essai 1, pH 7,6, β 0,02): 47 microgrammes/ml
- griseofulvine (microgrammes/ml) ([1]; essai 2, pH 7,08, β 0,093): 43 microgrammes/ml
- griseofulvine (microgrammes/ml) ([1]; essai 3, pH 7,0, β 0,185): 36 microgrammes/ml
- griseofulvine (microgrammes/ml) ([1]; essai 4, pH 6,95, β 0,26): 30 microgrammes/ml
- griseofulvine (microgrammes/ml) ([1]; essai 5, pH 6,95, β 0,32): 26 microgrammes/ml
- griseofulvine (microgrammes/ml) ([1]; essai 6, pH 6,95, β 0,42): 22 microgrammes/ml
- griseofulvine (microgrammes/ml) ([1]; essai 7, pH 6,83, β 0,51): 18 microgrammes/ml
- griseofulvine (microgrammes/ml) ([1]; essai 8, pH 6,67, β 0,673): 15 microgrammes/ml
- griseofulvine (microgrammes/ml) ([1]; essai 9, pH 6,20, β 0,89): 15 microgrammes/ml
- griseofulvine (microgrammes/ml) ([1]; essai 10, pH 4,5 à 4,6, β 1): 15 microgrammes/ml
- solubility [2]: 13 to 15 µg/mL (≈ 36.9 to 42.5 µM)
Compound: COC1=CC(=O)C[C@@H](C)[C@]12Oc1c(Cl)c(OC)cc(OC)c1C2=O [griseofulvine]

- progestérone (microgrammes/ml) ([3]; Example 1, Q-P(TDAE)19 TN = 2,5 x 10^-2 N, essai 1, pH 7,5, β 0,07): 75 microgrammes/ml
- progestérone (microgrammes/ml) ([3]; Example 1, Q-P(TDAE)19 TN = 2,5 x 10^-2 N, essai 2, pH 6,97, β 0,135): 62-64 microgrammes/ml
- progestérone (microgrammes/ml) ([3]; Example 1, Q-P(TDAE)19 TN = 2,5 x 10^-2 N, essai 3, pH 6,95, β 0,20): 48-50 microgrammes/ml
- progestérone (microgrammes/ml) ([3]; Example 1, Q-P(TDAE)19 TN = 2,5 x 10^-2 N, essai 4, pH 6,95, β 0,26): 38 microgrammes/ml
- progestérone (microgrammes/ml) ([3]; Example 1, Q-P(TDAE)19 TN = 2,5 x 10^-2 N, essai 5, pH 6,95, β 0,38): 26 microgrammes/ml
- progestérone (microgrammes/ml) ([3]; Example 1, Q-P(TDAE)19 TN = 2,5 x 10^-2 N, essai 6, pH 6,80, β 0,63): 14-16 microgrammes/ml
- progestérone (microgrammes/ml) ([3]; Example 1, Q-P(TDAE)19 TN = 2,5 x 10^-2 N, essai 7, pH 6,55, β 0,75): 11-12 microgrammes/ml
- progestérone (microgrammes/ml) ([3]; Example 1, Q-P(TDAE)19 TN = 2,5 x 10^-2 N, essai 8, pH 6,15, β 0,88): 11-12 microgrammes/ml
- progestérone (microgrammes/ml) ([3]; Example 2, Q-P(TDAE)19 TN = 0,15N, essai 1, pH 7,50, β 0,13): 315 microgrammes/ml
- progestérone (microgrammes/ml) ([3]; Example 2, Q-P(TDAE)19 TN = 0,15N, essai 2, pH 7,50, β 0,17): 300 microgrammes/ml
- progestérone (microgrammes/ml) ([3]; Example 2, Q-P(TDAE)19 TN = 0,15N, essai 3, pH 7,50, β 0,26): 225 microgrammes/ml
- progestérone (microgrammes/ml) ([3]; Example 2, Q-P(TDAE)19 TN = 0,15N, essai 4, pH 7,40, β 0,47): 185-190 microgrammes/ml
- progestérone (microgrammes/ml) ([3]; Example 2, Q-P(TDAE)19 TN = 0,15N, essai 5, pH 7,36, β 0,51): 80 microgrammes/ml
- progestérone (microgrammes/ml) ([3]; Example 2, Q-P(TDAE)19 TN = 0,15N, essai 6, pH 7,25, β 0,58): 70 microgrammes/ml
- progestérone (microgrammes/ml) ([3]; Example 2, Q-P(TDAE)19 TN = 0,15N, essai 7, pH 4,8, β 0,98): 10 à 12 microgrammes/ml
- quantité de progestérone dissoute ([3]; with NaCl, solution at 0,9X en NaCl (18mg in 2ml)): 375 microgrammes par ml de filtrat
- quantité de progestérone dissoute ([3]; without NaCl): 375 microgrammes par ml de filtrat
- solubilité dans l'eau ([2]; no polymer, approximate values, no source stated): 11 à 12 microgrammes par ml
Compound: progestérone
